Test results as given in publication PMC12267056 (Nature, 2025).
Positions count from the first letter of the chain named. Values joined by “and” are separate entries in the source; they are usually repeats but may differ in a detail not shown here. Identical values can stand only once.

Key:
SLC35B1 Q113F = target: T1, SLC35B1 Q113F (Homo sapiens, UniProt P78383, Q113F); settings: variant Q113F; 1 mM ATP
T1 sequence (P78383 1-322 Q113F): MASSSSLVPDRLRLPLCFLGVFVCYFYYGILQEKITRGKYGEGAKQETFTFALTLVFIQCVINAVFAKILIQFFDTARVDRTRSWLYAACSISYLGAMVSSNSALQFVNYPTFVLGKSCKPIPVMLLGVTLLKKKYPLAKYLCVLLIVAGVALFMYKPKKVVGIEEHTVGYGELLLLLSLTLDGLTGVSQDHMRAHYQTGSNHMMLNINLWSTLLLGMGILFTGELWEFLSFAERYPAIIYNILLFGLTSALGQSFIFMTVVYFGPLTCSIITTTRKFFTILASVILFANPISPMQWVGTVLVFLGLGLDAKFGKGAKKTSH

SLC35B1 Q190A = target: T2, SLC35B1 Q190A (Homo sapiens, UniProt P78383, Q190A); settings: variant Q190A; 1 mM ATP
T2 sequence (P78383 1-322 Q190A): T1 sequence (P78383 1-322 Q113F) with F113Q, Q190A

SLC35B1 R194A = SLC35B1 R194A (Homo sapiens, UniProt P78383, R194A); settings: variant R194A; 1 mM ATP
SLC35B1 R194A, sequence (P78383 whole entry R194A): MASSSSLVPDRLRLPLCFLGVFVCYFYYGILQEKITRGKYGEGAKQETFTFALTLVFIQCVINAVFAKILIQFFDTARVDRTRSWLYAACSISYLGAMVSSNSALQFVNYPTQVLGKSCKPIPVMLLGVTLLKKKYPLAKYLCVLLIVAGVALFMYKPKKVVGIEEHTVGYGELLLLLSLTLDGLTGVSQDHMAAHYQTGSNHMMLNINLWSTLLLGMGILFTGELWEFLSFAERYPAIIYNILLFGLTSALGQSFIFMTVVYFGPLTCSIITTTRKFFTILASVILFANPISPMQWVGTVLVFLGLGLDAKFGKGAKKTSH

SLC35B1 I257E [1] = target: T3, SLC35B1 I257E (Homo sapiens, UniProt P78383, I257E); settings: variant I257E; 1 mM ATP
T3 sequence (P78383 1-322 I257E): T1 sequence (P78383 1-322 Q113F) with F113Q, I257E

SLC35B1 T273A = SLC35B1 T273A (Homo sapiens, UniProt P78383, T273A); settings: variant T273A; 1 mM ATP
SLC35B1 T273A, sequence (P78383 whole entry T273A): as the sequence (P78383 whole entry R194A) above, with A194R, T273A counted along it

SLC35B1 R276A [2] = target: T4, SLC35B1 R276A (Homo sapiens, UniProt P78383, R276A); settings: variant R276A; 1 mM ATP
T4 sequence (P78383 1-322 R276A): T1 sequence (P78383 1-322 Q113F) with F113Q, R276A

SLC35B1 K277A = target: T5, SLC35B1 K277A (Homo sapiens, UniProt P78383, K277A); settings: variant K277A; 1 mM ATP
T5 sequence (P78383 1-322 K277A): T1 sequence (P78383 1-322 Q113F) with F113Q, K277A

[3] = target: T6, human SLC35B1 (wild type) (Homo sapiens, UniProt P78383); settings: single temperature 37 °C
T6 sequence (P78383 1-322): T1 sequence (P78383 1-322 Q113F) with F113Q

SLC35B1 R276A [4] = target: T4, SLC35B1 R276A; settings: variant R276A; 37 °C
SLC35B1 I257E [5] = target: T3, SLC35B1 I257E; settings: variant I257E; 37 °C
SLC35B1 C269A = target: T7, SLC35B1 C269A (Homo sapiens, UniProt P78383, C269A); settings: variant C269A; 37 °C
T7 sequence (P78383 1-322 C269A): T1 sequence (P78383 1-322 Q113F) with F113Q, C269A

crude ER microsomes = settings: read-out: Km for ATP import into crude ER microsomes; cited from earlier work
BiP = settings: cited from earlier work
SLC35B1 K120A = SLC35B1 K120A (Homo sapiens, UniProt P78383, K120A); test: biochemical; settings: read-out: ΔTm, individual titrations (source data), variant K120A; 1 mM ATP
SLC35B1 K120A, sequence (P78383 whole entry K120A): as the sequence (P78383 whole entry R194A) above, with K120A, A194R counted along it

[6] = target: T6, human SLC35B1 (wild type); assay type: binding; parameters: made in house; host or cells: Saccharomyces cerevisiae FGY217

## Nc1ncnc2c1ncn2[C@@H]1O[C@H](COP(=O)(O)OP(=O)(O)OP(=O)(O)O)[C@@H](O)[C@H]1O [ATP]
SLC35B1 Q113F
  ΔTm, individual titrations (source data): 6.34
SLC35B1 Q190A
  ΔTm, individual titrations (source data): 5.9
SLC35B1 R194A
  DTM (ΔTm with ATP): robust ATP binding
SLC35B1 I257E [1]
  ΔTm, individual titrations (source data): 1.4
SLC35B1 T273A
  ΔTm, individual titrations (source data): 2.49
SLC35B1 R276A [2]
  ΔTm, individual titrations (source data): 0.15 and 0.2
SLC35B1 K277A
  ΔTm, individual titrations (source data): 2.51
[3]
  Concentration of maximal thermostabilization: 1 mM
SLC35B1 R276A [4]
  Concentration-dependent ATP thermostabilization: no clear thermostabilization
SLC35B1 I257E [5]
  Concentration-dependent ATP thermostabilization: severely diminished
SLC35B1 C269A
  Concentration-dependent ATP thermostabilization: still able to interact with ATP
Crude ER microsomes
  Km: 3 to 5 µM and 4 µM
BiP
  kcat of BiP: 0.000217 s⁻¹
SLC35B1 K120A
  ΔTm at 1000 µM: 1.17 °C
[6]; 1 mM nucleotide, purified wild-type SLC35B1–GFP
  ΔTm (average melting temperature increase): 5.2 °C
[6]; temperature 40, 1 mM substrate
  GFP fluorescence after heating (source data Fig 1B): 49.9464
